Assays:
KGN [1] = assay: Induction of estrogen biosynthesis in human KGN cells assessed as upregulation of E2 concentration preincubated for 24 hrs followed by testosterone addition for 24 hrs by magnetic particle based ELISA; type: functional, cell-based
KGN [2] = assay: Induction of estrogen biosynthesis in human KGN cells assessed as upregulation of E2 concentration at 25 uM preincubated for 24 hrs followed by testosterone addition for 24 hrs by magnetic particle based ELISA; type: functional
KGN [3] = assay: Upregulation of aromatase expression in human KGN cells at 10 to 50 uM after 24 hrs by Western blot analysis; type: functional

| EC50 (KGN [1]) | SMILES | Activity (KGN [1]) | fold change (FC) (KGN [2]) | fold change (FC) (KGN [3]) |
| --- | --- | --- | --- | --- |
| 11.1 µM | COc1cc(/C=C/C(=O)OC[C@H]2O[C@@H](O[C@@H]3OC=C[C@@]4(O)[C@H](O)C[C@](C)(OC(C)=O)[C@@H]34)[C@H](O)[C@@H](O)[C@@H]2O)cc(OC)c1O | Dose-dependent effect | 2 | 1.5 |
| 8 µM | CC(=O)CC[C@@]1(C)[C@H](C)CC[C@@]2(C)C(CO)=CCC[C@H]12 | Dose-dependent effect | 2 | 1.5 |
